Assay results taken from patent US20200171056A1, “SULFONYLUREA COMPOUNDS IN THE TREATMENT OF DISEASE ASSOCIATED WITH UV-INDUCED DAMAGE” (CeMM - Forschungszentrum für Molekulare Medizin GmbH, priority 2017, published 2020).

What was measured:
Format in all cases: cell-based, human
[1] = system: XPA-deficient HAP1 cells (ΔXPA); experiment: High-throughput drug screen for agents that alleviate UV sensitivity of NER-deficient cells; details: drug at five times maximal plasma concentration for 24 hours, then UV; viability after 3 days
Text: An in-house drug library of around 300 compounds representing all structurally distinct Food and Drug Administration (FDA) approved compounds was used to allow for potential drug repurposing. First, an NER-deficient cell line was generated by making a frameshift mutation in XPA, one of the central components of NER that functions in both TC-NER and GG-NER, utilizing CRISPR-Cas9 in the human near haploid cell line HAP1 (denoted ΔXPA) (FIG. 5A). […] Next, ΔXPA and wildtype cells were exposed to the drug library (with each drug used at five times maximal plasma concentration) for 24 hours, followed by UV exposure (at a dose selected to kill ΔXPA cells but not wildtype cells) (FIGS. 1A and 5D). The compounds were scored based on their efficiency to improve cellular survival of ΔXPA cells, compared to wildtype cells (FIG. 1B). […]
Fifty nL of compound per well was transferred into 384-well plates (Corning 3712) from DMSO stock plates using acoustic transfer (Labcyte Echo 520). […] Three days later cell viability was determined using Cell Titer-Glo (Promega). […] For data analysis, the percentage of control was calculated and the signal of the DMSO irradiated sample was used to set values to 0% while the DMSO non-irradiated sample was used to set the values to 100%. […]

[2] = system: ΔXPA cells; experiment: Short-term survival after UV irradiation (CellTiter-Glo); details: 0.5 mM acetohexamide for 6 hours, then UV; survival after 3 days (FIG. 1D)
Text: A. Schematic representation of the experimental setup used to perform the high-throughput drug screen, where drugs were used at five-times maximal plasma concentration (CLOUD; CeMM library of unique drugs). B. Bubble plot displaying the drugs used plotted against cell viability. Light grey bubbles indicate wildtype (WT) cells, dark grey bubbles indicate XPA-deficient cells (ΔXPA). […] C. Chemical structure of acetohexamide. D. Dose-response curve of WT and ΔXPA cells treated with or without 0.5 mM acetohexamide for 6 hours, followed by UV irradiation. Survival was assessed after 3 days, using CellTiter-Glo. […] Error bars indicate SEM (n=3). E. Colony formation using the same conditions indicated in (D), where cells were kept in culture for 10 days following UV irradiation, following which they were fixed and stained.
A-C. Cell viability of ΔXPA cells treated with different concentrations of acetohexamide (aceto), gliclazide (GLC) and glimepiride (GLM) for 6 hours, followed by 10 J/M^2 of UV irradiation. D. Survival of WT and ΔXPA cells treated with or without 50 μM glibenclamide for 6 hours, followed by UV exposure. Survival was assessed after 3 days using CellTitre-Glo. E. Cell viability of ΔXPA cells treated with 10 μM of different derivatives of acetohexamide for 6 hours, followed by UV irradiation with 5 J/M^2.
For UV irradiation, cells were washed with PBS, trypsinized, counted and distributed in equal number then irradiated with different doses of UV as indicated. Finally, 1,000 cells were re-distributed into 96 well plates. After 72 hours, survival was measured using Cell Titer-Glo (Promega). Cells were irradiated with UVC using the UVP CX-2000 device (254 nm, Fisher Scientific).

[3] = system: WT HAP1 cells; experiment: Survival after other DNA damaging agents (MMC, HU, MMS); details: WT HAP1, 0.5 mM for 6 hours, 3 days
Protocol: A. WT and ΔXPA cells were either treated with DMSO or 0.5 mM acetohexamide for 6 hours. Cell cycle profiles were determined using propidium iodide (P1) staining followed by FACS analysis. B-D. Survival of WT HAP1 cells treated with either DMSO or 0.5 mM acetohexamide for 6 hours, followed by exposure to the indicated DNA damaging agents (MMC: mitomycin C; HU: hydroxyl urea; MMS: methyl methanesulfonate). Survival was assessed after 3 days using CellTitre-Glo. E. Cell viability of WT cells treated either with 0.5 mM acetohexamide or 30 μM N-acetylcysteine (NAC) for 6 hours, followed by 30 J/M^2 UV exposure.
Dose Responses and UV Treatment Dose-response curves for the DNA damage agents including mitomycin C (MMC), methyl methanesulfonate (MMS), hydroxyurea (HU), neocarzinostatin (NCS) and illudin S were performed in 96-well plates by seeding 1,000 cells/well in triplicates. The next day, compounds at different concentrations were added and 3 days later, cell viability was assessed using Cell Titer-Glo (Promega)

[4] = system: SUR1 transcript; experiment: SUR1 mRNA expression by quantitative reverse transcription PCR; details: ΔXPA cells, 0.5 mM for 6 hours, 15 J/M^2 UV (FIG. 9B)
Protocol: A. Fragments Per Kilobase Million (FPKM) for SUR1 and GAPDH in HAP1 WT cells compared, from RNA sequencing. B. mRNA expression of SUR1 transcript assessed by quantitative reverse transcription PCR in WT and ΔXPA cells with or without 0.5 mM acetohexamide treatment for 6 hours, followed by 15 J/M^2 UV irradiation and subsequent recovery as indicated. Expression of GAPDH was used as a reference. Error bars indicate SEM (n=3).
WT and ΔXPA HAP1 cells were harvested and RNA was isolated using phenol-chlorophorm extraction. After treatment with 1 μl DNase (Sigma), the cDNA was transcribed using SuperScript III Reverse Transcriptase (Invitrogen). An amount of 1 μg of cDNA template was used for the qRT-PCR using SYBR Green qPCR Mastermix (Qiagen). Analysis was performed in triplicates using GAPDH as a control gene. The PCR was performed on a 7900HT Fast Real-Time PCR System (Applied Biosystems). The following primers were used: […]

With CC(=O)c1ccc(S(=O)(=O)NC(=O)NC2CCCCC2)cc1 [acetohexamide] the “correction of survival of ΔXPA cells compared to wildtype cells” value [1] was over 40%, the “UV sensitivity of ΔXPA cells, short-term dose response assay” value [2] was “alleviated the UV sensitivity of ΔXPA cells almost to the level of wildtype cells” and the “cellular survival following exposure to HU” value ([3]; then hydroxyurea) was “did not increase cellular survival”. For the same compound, the “cellular survival following exposure to MMS” value ([3]; then methyl methanesulfonate) was “did not increase cellular survival”, the “cellular survival following exposure to MMC” value ([3]; then mitomycin C) was “did not increase cellular survival” and the SUR1 expression [4] was “not expressed”.
